{
  "source": "paper PMC11378297",
  "about": "“Discovery and Profiling of New Multimodal Phenylglycinamide Derivatives as Potent Antiseizure and Antinociceptive Drug Candidates” (ACS Chemical Neuroscience, 2024)",
  "experiment": "pharmacokinetic study in mice (serum and brain, non-compartmental analysis)",
  "type": "in vivo, mouse",
  "settings": "for Kp / MRT / Tmax / half-life / k el / CL/F / Vd/F: male, CD-1, mouse; for Kp: brain and serum, read-out: Brain-to-serum AUC ratio; for half-life: read-out: t1/2 λz; for k el: read-out: λz (converted); for Vd/F: read-out: Vz/F",
  "experimental": "They were housed in conditions of constant temperature with the 12:12 h light–dark cycle and free access to food and water. […] Moreover, the compound was dissolved in a mixture of DMSO/PEG400/water (1:4:5, v/v/v) and administered p.o. at a dose of 25 mg/kg. […] After allowing the blood to coagulate for 20 min at room temperature, the serum was separated using a 5000g Eppendorf miniSpin centrifuge (Germany) for 10 min. Samples were kept at −80 °C until they were analyzed. The First Ethical Committee on Animal Experimentation in Kraków granted approval for all animal treatments (license no. 270/2019). Concentrations of compound (R)-32 in mouse serum and brain tissue were measured using a liquid chromatography tandem mass spectrometry method (LC-MS/MS). Mouse brains were homogenized in distilled water at the ratio of 1:4 (w/v) using the ULTRA-TURRAX T10 basic tissue homogenizer (IKA, Germany). […] Samples were shaken for 10 min (IKA Vibrax VXR, Germany) and then centrifuged for 5 min at the speed of 8000g (Eppendorf miniSpin centrifuge, Germany). Supernatants were transferred into the autosampler vials, and a sample volume of 1 μL was injected into the LC-MS/MS system. Liquid chromatography was performed on an Exion LC AC HPLC system (Sciex, USA) with a Hypersil Gold C18 analytical column (3 × 50 mm, 5 μm, Thermo Scientific, USA). […] The initial mobile phase composition was 95% B and 5% A for the first 2 min with a linear gradient to 5% B in the next 2 min and then isocratic mode for 2 min with the following rapid change back to 95% B in 0.1 min. The remaining time of elution was set at 95% B. The whole HPLC operation lasted 10 min, and the flow rate was set to 0.4 mL/min. A QTRAP 4500 mass spectrometer (Sciex, USA) equipped with an ESI source, was used for detection. The mass spectrometric parameters were optimized to obtain maximum sensitivity at unit resolution. The ion source temperature was maintained at 450 °C, and the ion spray voltage was set to 5500 V. The CUR was set to 40 psi and the collision gas (CAD) to medium. The MRM experiments were conducted in the positive ion mode by monitoring the precursor to product ion transitions from m/z 422 to 247 (CE = 25 eV) and from m/z 422 to 106 (CE = 57 eV) for compound (R)-32 and from m/z 436 to 207 (CE = 42 eV) for IS. The working solutions for (R)-32 were created in methanol, while the stock solution was made in DMSO at a concentration of 1 mg/mL. […] Two distinct calibration curves were created for serum samples, one for greater concentrations and one for lower amounts. The precipitating agent was also diluted 10 times with calibrators and samples from the highest concentration range. […] The limits used for quantification were 0.001 to 5, 0.1 to 20 μg/mL for serum, and 0.005 to 25 μg/g for brain tissue. Samples with (R)-32 concentrations higher than the quantitative upper limit were 10-fold diluted using the blank matrix, which is either serum or brain homogenate. The method’s precision and accuracy fell within the bounds established by the FDA’s standards for the verification of bioanalytical techniques. During the normal analysis of the samples, no substantial matrix effect was identified, and no stability issues were encountered. The Analyst program version 1.7 was utilized for both data collecting and analysis. Noncompartmental analysis was used to estimate pharmacokinetic parameters of (R)-32 in serum and brain tissue. The area under the mean concentration versus time curve extrapolated to infinity (AUC0-inf) was estimated using the linear trapezoidal rule by combining trapezoid calculation of AUC0–t and the area extrapolated to infinity. The MRT was calculated from AUMC0-inf/AUC0-inf, where AUMC0-inf was estimated by calculation of the total area under the first-moment curve. The terminal slope (λz) was calculated by log–linear regression of the drug concentration versus time data in the terminal phase and the terminal half-life (t0.5) was calculated as 0.693/λz. […]",
  "note": "Like-named read-outs stand apart in the source and are kept apart here.",
  "data": [
    {"smiles": "CC(=O)N[C@@H](C(=O)N1CCN(c2cccc(OC(F)(F)F)c2)CC1)c1ccccc1", "note": "[(R)-32, (R)-N-(2-Oxo-1-phenyl-2-(4-(3-(trifluoromethoxy)phenyl)piperazin-1-yl)ethyl)acetamide]", "values": [
      {"measurement": "MRT after p.o. dosing in comparison to i.p. administration", "result": "~4", "unit": "fold"},
      {"measurement": "ratios of Cmax and AUC in serum after p.o. dosing compared to i.p. administration of the same dose", "setting": "25 mg/kg", "result": "lower than 0.5"},
      {"measurement": "AUC0–∞", "setting": "brain, 25 mg/kg i.p.", "result": "274,802.60 ng·min/mL(g)"},
      {"measurement": "Cmax", "setting": "brain, 25 mg/kg i.p.", "result": "8266.67 ng/mL(g)"},
      {"measurement": "AUC0–∞", "setting": "brain, 25 mg/kg p.o.", "result": "156,252.29 ng·min/mL(g)"},
      {"measurement": "Cmax", "setting": "brain, 25 mg/kg p.o.", "result": "1870.33 ng/mL(g)"},
      {"measurement": "AUC0–∞", "setting": "brain, 50 mg/kg i.p.", "result": "689,733.29 ng·min/mL(g)"},
      {"measurement": "Cmax", "setting": "brain, 50 mg/kg i.p.", "result": "21,475.00 ng/mL(g)"},
      {"measurement": "Kp", "setting": "intraperitoneal, 50 mg/kg", "result": 1.5},
      {"measurement": "Kp", "setting": "ip, 25 mg/kg i.p.", "result": 1.2},
      {"measurement": "Kp", "setting": "po, 25 mg/kg p.o.", "result": 1.3},
      {"measurement": "MRT", "setting": "ip, brain, 25 mg/kg i.p.", "result": 45.5, "unit": "min"},
      {"measurement": "Tmax", "setting": "ip, brain, 25 mg/kg i.p.", "result": 15, "unit": "min"},
      {"measurement": "half-life", "setting": "ip, brain, 25 mg/kg i.p.", "result": 80.5, "unit": "min"},
      {"measurement": "k el", "setting": "ip, brain, 25 mg/kg i.p.", "result": 0.00015, "unit": "s⁻¹"},
      {"measurement": "MRT", "setting": "ip, brain, 50 mg/kg i.p.", "result": 47.3, "unit": "min"},
      {"measurement": "Tmax", "setting": "ip, brain, 50 mg/kg i.p.", "result": 15, "unit": "min"},
      {"measurement": "half-life", "setting": "ip, brain, 50 mg/kg i.p.", "result": 62.3, "unit": "min"},
      {"measurement": "k el", "setting": "ip, brain, 50 mg/kg i.p.", "result": 0.000183, "unit": "s⁻¹"},
      {"measurement": "CL/F", "setting": "ip, serum, 25 mg/kg i.p.", "result": 110, "unit": "mL/min/kg"},
      {"measurement": "MRT", "setting": "ip, serum, 25 mg/kg i.p.", "result": 42.3, "unit": "min"},
      {"measurement": "Tmax", "setting": "ip, serum, 25 mg/kg i.p.", "result": 15, "unit": "min"},
      {"measurement": "Vd/F", "setting": "ip, serum, 25 mg/kg i.p.", "result": 12.3, "unit": "L/kg"},
      {"measurement": "half-life", "setting": "ip, serum, 25 mg/kg i.p.", "result": 77.5, "unit": "min"},
      {"measurement": "k el", "setting": "ip, serum, 25 mg/kg i.p.", "result": 0.00015, "unit": "s⁻¹"},
      {"measurement": "CL/F", "setting": "ip, serum, 50 mg/kg i.p.", "result": 108, "unit": "mL/min/kg"},
      {"measurement": "MRT", "setting": "ip, serum, 50 mg/kg i.p.", "result": 33.6, "unit": "min"},
      {"measurement": "Tmax", "setting": "ip, serum, 50 mg/kg i.p.", "result": 15, "unit": "min"},
      {"measurement": "Vd/F", "setting": "ip, serum, 50 mg/kg i.p.", "result": 9.97, "unit": "L/kg"},
      {"measurement": "half-life", "setting": "ip, serum, 50 mg/kg i.p.", "result": 64.3, "unit": "min"},
      {"measurement": "k el", "setting": "ip, serum, 50 mg/kg i.p.", "result": 0.000183, "unit": "s⁻¹"},
      {"measurement": "MRT", "setting": "po, brain, 25 mg/kg p.o.", "result": 151, "unit": "min"},
      {"measurement": "Tmax", "setting": "po, brain, 25 mg/kg p.o.", "result": 5, "unit": "min"},
      {"measurement": "half-life", "setting": "po, brain, 25 mg/kg p.o.", "result": 133, "unit": "min"},
      {"measurement": "k el", "setting": "po, brain, 25 mg/kg p.o.", "result": "8.33e-05", "unit": "s⁻¹"},
      {"measurement": "CL/F", "setting": "po, serum, 25 mg/kg p.o.", "result": 210, "unit": "mL/min/kg"},
      {"measurement": "MRT", "setting": "po, serum, 25 mg/kg p.o.", "result": 156, "unit": "min"},
      {"measurement": "Tmax", "setting": "po, serum, 25 mg/kg p.o.", "result": 5, "unit": "min"},
      {"measurement": "Vd/F", "setting": "po, serum, 25 mg/kg p.o.", "result": 38.5, "unit": "L/kg"},
      {"measurement": "half-life", "setting": "po, serum, 25 mg/kg p.o.", "result": 127, "unit": "min"},
      {"measurement": "k el", "setting": "po, serum, 25 mg/kg p.o.", "result": "8.33e-05", "unit": "s⁻¹"},
      {"measurement": "Tmax", "setting": "serum, other: both i.p. and p.o., after both i.p. and p.o. dosing", "result": "≤ 15", "unit": "min"},
      {"measurement": "AUC0–∞", "setting": "serum, 25 mg/kg i.p.", "result": "228,063.48 ng·min/mL(g)"},
      {"measurement": "Cmax", "setting": "serum, 25 mg/kg i.p.", "result": "7613.33 ng/mL(g)"},
      {"measurement": "AUC0–∞", "setting": "serum, 25 mg/kg p.o.", "result": "118,998.11 ng·min/mL(g)"},
      {"measurement": "Cmax", "setting": "serum, 25 mg/kg p.o.", "result": "1266.00 ng/mL(g)"},
      {"measurement": "AUC0–∞", "setting": "serum, 50 mg/kg i.p.", "result": "464,877.54 ng·min/mL(g)"},
      {"measurement": "Cmax", "setting": "serum, 50 mg/kg i.p.", "result": "15,900.00 ng/mL(g)"}
    ]}
  ]
}
